The record followed here is patent publication US10023593B2, “ALK kinase inhibitor, and preparation method and uses thereof” (BEIJING PEARL BIOTECHNOLOGY LIMITED LIABILITY COMPANY, priority 2014, dated 2018).

The target in one experiment is cytochrome P450 2C19 (Homo sapiens, UniProt P33261). Kind of experiment: Inhibitory activity on cytochrome P450 2C19. Conditions: no significant inhibition. The class given is in vitro ADME.
The target in a further experiment is cytochrome P450 2C9 (Homo sapiens, UniProt P11712). Kind of experiment: Inhibitory activity on cytochrome P450 2C9. It is filed as in vitro ADME. Conditions: no significant inhibition.
The test system of the next experiment is Karpas-299 cell line. Kind of experiment: CellTiter-Glo cell proliferation inhibition on Karpas-299 cell line. The class given is cell-based. Conditions: Homo sapiens, 96 h, Karpas-299 cells, 5000 cells/well, 4 days drug treatment. The method, then:
4. Cell Proliferation Inhibitory Activities of the Compounds of the Present Invention on Karpas-299 Cell Line
? experimental method ? CellTiter-Glo® Luminescent Cell Viability Assay kit from Promega company was used to detect cell proliferation inhibitory activities of the compounds on Karpas-299 cell line.
? instrument ? Envision 2104 plate reader from PerKinElmer company; Vi-Cell XR cell counter from Beckman Counter company; MCO-18AIC CO2 incubator from SANYO company.
? experiment material ? CellTiter-Glo® Luminescent Cell Viability Assay Kit (Promega company, catalog No. G7573); Karpas-299 cell line (DSMZ, catalog No. ACC31); RPMI-1640 medium (HyClone company, catalog No. SH30809.01B); fetal bovine serum (FBS) (Gibco company, catalog No. 10099-141); PBS (HyClone company, catalog No. SH30256.01B); 96 wells cell culture plate (Corning company, catalog No. 3610); DMSO (AMRESCO company, catalog No. 0231); 96 wells plates (for diluting compounds) (CITOTEST company, catalog No. Ref36020096D);
? experimental condition ? Karpas-299 cells in exponential growth phase were collected and viable cells were counted by Vi-Cell XR cell counter. Cell suspension was adjusted to 62500 cells/ml with culture medium (RPMI-1640+10% FBS). 80 μl cell suspension was added into each well of 96 wells cell culture plate so that so that the final cell number of Karpas-299 cells was 5000 cells/well. The cells were cultivated in an incubator with an atmosphere of 37° C., 5% CO2 and 95% humidity for 2 hours and then each well was added with 20 μl compounds in RPMI-1640 medium solution (the final concentration of DMSO was 0.5%). 4 days after drug treatment, each well was added with 50 μl CellTiter-Glo solution which was previously thawed and equilibrated to room temperature, and mixed for 2 minutes with microplate shaker. After placing at room temperature for 10 minutes, luminescence reading value was measured with PerkinElmer Envision 2104 plate reader and the data was analyzed.
? tested samples ? Compounds of the examples.
Luminescence value of DMSO solvent control (Vvehicle control, which is the mean luminescence value from DMSO solvent control group)
Tested luminescence value (Vsample, which is the luminescence value from given concentration of compounds group) Inhibition rate (%)=(1−Vsample/Vvehicle control)×100
? data processing ? IC50 of compounds was calculated by using XLfit program in Excel.
Background: Cellular ATP, detected with luciferase, serves as a proxy for viable cell number.

The next experiment deals with T1, cytochrome P450 1A2 (Homo sapiens, UniProt P05177).
T1 sequence (P05177 1-516): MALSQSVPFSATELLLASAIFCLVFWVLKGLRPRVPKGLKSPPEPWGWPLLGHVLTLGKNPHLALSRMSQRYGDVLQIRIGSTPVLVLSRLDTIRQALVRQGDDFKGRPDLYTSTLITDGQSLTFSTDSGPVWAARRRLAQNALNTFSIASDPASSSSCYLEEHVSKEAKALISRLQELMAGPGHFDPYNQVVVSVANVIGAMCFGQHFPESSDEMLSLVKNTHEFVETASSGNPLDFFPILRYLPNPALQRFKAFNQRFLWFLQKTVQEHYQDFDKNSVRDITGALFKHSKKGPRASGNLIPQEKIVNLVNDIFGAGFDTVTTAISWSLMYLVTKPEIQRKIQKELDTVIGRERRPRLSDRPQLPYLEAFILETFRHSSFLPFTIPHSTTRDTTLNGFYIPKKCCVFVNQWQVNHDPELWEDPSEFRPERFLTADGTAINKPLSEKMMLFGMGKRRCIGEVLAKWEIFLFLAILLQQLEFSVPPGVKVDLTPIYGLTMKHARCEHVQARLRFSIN
Kind of experiment: Inhibitory activity on cytochrome P450 1A2. The class given is in vitro ADME. Conditions: no significant inhibition.

For the next experiment, the system named is NCI-H2228 cell line. Kind of experiment: CellTiter-Glo cell proliferation inhibition on NCI-H2228 cell line. The class given is cell-based. Conditions: Homo sapiens, 96 h, NCI-H2228 cells, 5000 cells/well, 4 days drug treatment. In short, it runs like this:
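NCI-H2228 cells, 5000/well in RPMI-1640 + 10% FBS, treated with compounds 2 h after seeding (0.5% DMSO final) for 4 days at 37° C. Viability by CellTiter-Glo luminescence; inhibition relative to DMSO control, IC50 from curve fit.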

A further experiment has as its target cytochrome P450 3A4 (Homo sapiens, UniProt P08684). Kind of experiment: Inhibitory activity on cytochrome P450 3A4. It is filed as in vitro ADME. Conditions: no significant inhibition.
For the next experiment, the target named is cytochrome P450 2D6 (Homo sapiens, UniProt P10635). Kind of experiment: Inhibitory activity on cytochrome P450 2D6. It is filed as in vitro ADME. Conditions: no significant inhibition.
Sequence of cytochrome P450 2D6 (P10635 whole entry): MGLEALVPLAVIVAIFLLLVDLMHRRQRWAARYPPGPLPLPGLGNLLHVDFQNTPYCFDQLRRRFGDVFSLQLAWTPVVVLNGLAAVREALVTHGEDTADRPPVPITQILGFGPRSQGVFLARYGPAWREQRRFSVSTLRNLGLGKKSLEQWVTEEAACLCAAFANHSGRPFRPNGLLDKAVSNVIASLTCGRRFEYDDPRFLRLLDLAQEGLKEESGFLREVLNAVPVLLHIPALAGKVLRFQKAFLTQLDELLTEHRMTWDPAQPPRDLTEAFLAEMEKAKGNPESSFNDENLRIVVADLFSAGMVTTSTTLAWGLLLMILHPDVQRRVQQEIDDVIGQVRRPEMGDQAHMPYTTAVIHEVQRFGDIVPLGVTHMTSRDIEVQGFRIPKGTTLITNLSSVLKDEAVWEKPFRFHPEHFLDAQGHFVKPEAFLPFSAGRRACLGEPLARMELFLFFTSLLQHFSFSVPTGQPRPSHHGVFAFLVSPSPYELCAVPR

Sequence of cytochrome P450 2C9 (P11712 whole entry): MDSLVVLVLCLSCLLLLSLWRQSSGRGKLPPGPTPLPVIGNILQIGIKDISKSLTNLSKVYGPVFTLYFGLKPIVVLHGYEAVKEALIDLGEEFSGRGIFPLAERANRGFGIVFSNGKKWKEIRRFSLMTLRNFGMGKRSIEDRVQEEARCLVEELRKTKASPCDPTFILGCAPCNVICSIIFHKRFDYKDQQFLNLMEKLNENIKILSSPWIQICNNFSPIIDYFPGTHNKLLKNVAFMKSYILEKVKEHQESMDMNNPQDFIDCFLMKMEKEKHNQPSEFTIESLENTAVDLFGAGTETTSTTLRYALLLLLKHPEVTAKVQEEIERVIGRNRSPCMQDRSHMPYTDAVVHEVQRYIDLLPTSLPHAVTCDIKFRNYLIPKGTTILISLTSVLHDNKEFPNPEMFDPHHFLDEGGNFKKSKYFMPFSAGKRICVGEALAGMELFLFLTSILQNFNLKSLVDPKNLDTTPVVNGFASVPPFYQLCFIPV
Sequence of cytochrome P450 3A4 (P08684 whole entry): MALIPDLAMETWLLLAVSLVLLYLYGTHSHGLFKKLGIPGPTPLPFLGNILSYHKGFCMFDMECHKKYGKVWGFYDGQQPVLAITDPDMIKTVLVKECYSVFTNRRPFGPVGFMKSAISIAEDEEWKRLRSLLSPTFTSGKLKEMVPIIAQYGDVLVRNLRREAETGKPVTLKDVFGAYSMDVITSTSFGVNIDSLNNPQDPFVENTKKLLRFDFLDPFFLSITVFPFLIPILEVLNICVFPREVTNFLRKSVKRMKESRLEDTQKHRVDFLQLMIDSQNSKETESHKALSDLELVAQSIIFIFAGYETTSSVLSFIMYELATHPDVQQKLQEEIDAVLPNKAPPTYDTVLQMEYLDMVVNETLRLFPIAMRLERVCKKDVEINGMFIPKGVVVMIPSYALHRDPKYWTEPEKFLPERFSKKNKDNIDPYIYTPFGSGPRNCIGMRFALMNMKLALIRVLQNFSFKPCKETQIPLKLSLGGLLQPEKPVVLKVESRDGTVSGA
Sequence of cytochrome P450 2C19 (P33261 whole entry): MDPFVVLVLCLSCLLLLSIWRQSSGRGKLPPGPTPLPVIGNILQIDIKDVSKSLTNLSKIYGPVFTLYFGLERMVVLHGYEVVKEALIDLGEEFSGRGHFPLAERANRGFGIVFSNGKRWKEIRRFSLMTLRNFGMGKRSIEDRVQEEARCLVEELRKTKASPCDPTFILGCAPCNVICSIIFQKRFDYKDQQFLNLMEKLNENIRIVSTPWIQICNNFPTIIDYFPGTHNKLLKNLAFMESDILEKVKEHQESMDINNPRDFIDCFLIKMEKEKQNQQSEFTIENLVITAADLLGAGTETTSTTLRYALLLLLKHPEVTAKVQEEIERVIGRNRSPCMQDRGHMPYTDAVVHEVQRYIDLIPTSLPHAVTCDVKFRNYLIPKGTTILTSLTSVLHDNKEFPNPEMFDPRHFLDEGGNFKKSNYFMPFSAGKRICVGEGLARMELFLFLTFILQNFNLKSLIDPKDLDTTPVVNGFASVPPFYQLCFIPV

`CCN1CCC(c2cc(OC3CC3)c(Nc3ncc(Cl)c(Nc4cn(C)nc4S(=O)(=O)C(C)C)n3)cc2C)CC1` [Final product 114, 5-chloro-N^2-[2-cyclopropoxy-4-(1-ethylpiperidin-4-yl)-5-methylphenyl]-N^4-[1-methyl-3-(isopropylsulfonyl)-1H-pyrazol-4-yl]-pyrimidin-2,4-diamine]: the IC50 (usually the midpoint of a concentration-inhibition curve) against cytochrome P450 2C19 was greater than 10 µM; at cytochrome P450 2C9, greater than 10 µM; in the experiment with Karpas-299 cell line it was 0.01 µM; against cytochrome P450 1A2 it was greater than 10 µM; in the experiment with NCI-H2228 cell line, 0.07 µM; against cytochrome P450 3A4 it was greater than 10 µM. This compound showed a half-maximal inhibitory concentration (IC50) against cytochrome P450 2D6 greater than 10 µM.
